# Reference: US20240148821A1, “PHARMACEUTICAL USE OF CYCLIC PEPTIDE COMPOUND” (CHUGAI SEIYAKU KABUSHIKI KAISHA, priority 2021, published 2024)
# Numbered stars: 1 amine (or outer) side, 2 acyl side, 3 side chain; on linkers, the order of the positions; unused ones are H or OH. Bridge positions count the residues as written; N and C are the ends. Square brackets hold non-standard residues; d marks the D form. Peptide text beside a SMILES is read from it. * marks the point of attachment. hPhe(3,5-F2-4-CF3) = N[C@@H](CCc1cc(F)c(C(F)(F)F)c(F)c1)C(=O)O; hPhe(3-Cl-4-CF3) = N[C@@H](CCc1ccc(C(F)(F)F)c(Cl)c1)C(=O)O; NEtPhe(4-CF3) = CCN[C@@H](Cc1ccc(C(F)(F)F)cc1)C(=O)O; hPhe(4-CF3) = N[C@@H](CCc1ccc(C(F)(F)F)cc1)C(=O)O; NMePhe(4-Cl) = CN[C@@H](Cc1ccc(Cl)cc1)C(=O)O; NMedβ3hAla = C[C@H](CC(=O)[*:2])N(C)[*:1]; NMeGly(cPent) = CN[C@H](C(=O)O)C1CCCC1; NMeCha = CN[C@@H](CC1CCCCC1)C(=O)O; Hyp = O=C(O)[C@@H]1C[C@@H](O)CN1; NMeChg = CN[C@H](C(=O)O)C1CCCCC1; NMeF = CN[C@@H](Cc1ccccc1)C(=O)O; NMeT = CN[C@H](C(=O)O)[C@@H](C)O; N(CH2CH2)2CF2 = FC1(F)CCN(*)CC1; NMeD = CN[C@@H](CC(=O)O)C(=O)O; NMeL = CN[C@@H](CC(C)C)C(=O)O; NMeV = CN[C@H](C(=O)O)C(C)C; d(β3hA) = C[C@@H](N)CC(=O)O; Pip = O=C(O)[C@@H]1CCCCN1; NMeA = CN[C@@H](C)C(=O)O; NMeAib = CNC(C)(C)C(=O)O; Nle = CCCC[C@H](N)C(=O)O; Piperidide = C1CCN(*)CC1; dNMeA = CN[C@H](C)C(=O)O; Ac5c = NC1(C(=O)O)CCCC1; Aze = O=C(O)[C@@H]1CCN1; Ac4c = NC1(C(=O)O)CCC1; Sar = CNCC(=O)O
# Key:
# [1] = biological target: protein-protein interaction between Kras and SOS1 (biotin-tagged human Kras loaded with GDP, His-tagged human SOS1) (Homo sapiens (Human), UniProt P01116, G12D); assay: Protein-protein interaction inhibition between Kras and SOS1 (KrasG12D-SOS PPI) using AlphaScreen; assay type: biochemical; settings: AlphaScreen; biotin-tagged human Kras loaded with GDP, His-tagged human SOS1; read-out: KRAS G12D-SOS PPI IC50;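 note: kras produced in E. coli, Ni-coupled donor beads and streptavidin acceptor beads, excitation 680 nm with emission detected at 520–620 nm via singlet oxygen transfer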
# [2] = test system: Human pancreatic cancer cell line AsPC-1 (G12D mutation Kras); assay: AsPC-1 cell growth inhibition (AsPC-1 CGI); assay type: cell-based; settings: read-out: AsPC-1 cell growth inhibition, 50% growth inhibitory concentration (IC50 value); 96 hours, CellTiter-Glo, values classified in ranges
# Description: Test compounds were serially dilated with dimethyl sulfoxide, and 200 nL was then dispensed to a U-bottom 96-well plate using Labcyte Echo. […] The cell suspension was dispensed to a. plate containing a test compound at 100 μL per well and incubated at 37° C. in a 5% carbon dioxide gas incubator. 96 hours later, 80 μL of CellTiter-Glo (Promega) was added to each well and fluorescence was measured.
SMILES,IC50 [1],IC50 [2]
CC[C@H](C)[C@@H]1NC(=O)[C@H](CC(C)C)N(C)C(=O)C[C@@H](C(=O)N2CCCCC2)N(C)C(=O)[C@H](CC2CCCCC2)N(C)C(=O)C2(CCCC2)NC(=O)[C@@H]2CCCN2C(=O)[C@H](CCc2ccc(C(F)(F)F)c(Cl)c2)NC(=O)CN(C)C(=O)[C@H](CC2CCCCC2)N(C)C(=O)[C@@H]2CCN2C(=O)[C@H](C)N(C)C1=O [Compound 87] ([NMeL]I[NMeA][Aze][NMeCha][Sar][hPhe(3-Cl-4-CF3)]P[Ac5c][NMeCha][NMeD]-Piperidide; lactam N-11),45 nM,> 500 nM
CC[C@H](C)[C@@H]1NC(=O)[C@H]([C@@H](C)O)N(C)C(=O)C[C@@H](C(=O)N2CCCCC2)N(C)C(=O)[C@H](C(C)C)N(C)C(=O)C2(CCCC2)NC(=O)[C@@H]2CCCN2C(=O)[C@H](CCc2ccc(C(F)(F)F)c(Cl)c2)NC(=O)CN(C)C(=O)[C@H](CC2CCCCC2)N(C)C(=O)[C@@H]2CCN2C(=O)[C@H](C)N(C)C1=O [Compound 91] ([NMeT]I[NMeA][Aze][NMeCha][Sar][hPhe(3-Cl-4-CF3)]P[Ac5c][NMeV][NMeD]-Piperidide; lactam N-11),1.5 nM,> 500 nM
CC[C@H](C)[C@@H]1NC(=O)[C@H](CC(C)C)N(C)C(=O)C[C@@H](C(=O)N(C)C)NC(=O)[C@H](C(C)C)N(C)C(=O)C2(CCCC2)NC(=O)[C@H](CC(=O)N2CCC(F)(F)CC2)N(C)C(=O)[C@H](CCc2ccc(C(F)(F)F)c(Cl)c2)NC(=O)CN(C)C(=O)[C@H](CC2CCCCC2)N(C)C(=O)CN(C)C(=O)CN(C)C1=O [Compound 97] ([NMeL]I[Sar][Sar][NMeCha][Sar][hPhe(3-Cl-4-CF3)][NMeD](N(CH2CH2)2CF2)[Ac5c][NMeV]D-NMe2; lactam N-11),40 nM,> 500 nM
CCCC[C@@H]1NC(=O)[C@H](CCc2ccc(C(F)(F)F)c(Cl)c2)NC(=O)CN(C)C(=O)[C@H](Cc2ccc(Cl)cc2)N(C)C(=O)[C@@H]2CCN2C(=O)[C@H](C)N(C)C(=O)[C@H]([C@@H](C)CC)NC(=O)[C@@H]2CCCCN2C(=O)C[C@@H](C(=O)N2CCCCC2)N(C)C(=O)[C@H](CC(C)C)NC(=O)C(C)(C)N(C)C1=O [Compound 103] ([Pip]I[NMeA][Aze][NMePhe(4-Cl)][Sar][hPhe(3-Cl-4-CF3)][Nle][NMeAib]L[NMeD]-Piperidide; lactam N-11),22 nM,> 500 nM
CC[C@H](C)[C@@H]1NC(=O)[C@H](C)N(C)C(=O)C[C@@H](C(=O)N2CCCCC2)N(C)C(=O)[C@H](C(C)C)N(C)C(=O)C2(CCCC2)NC(=O)[C@@H]2CCCN2C(=O)[C@H](CCc2ccc(C(F)(F)F)c(Cl)c2)NC(=O)[C@@H](C)N(C)C(=O)[C@H](CC2CCCCC2)N(C)C(=O)[C@@H]2CCN2C(=O)CN(C)C1=O [Compound 115] ([NMeA]I[Sar][Aze][NMeCha][dNMeA][hPhe(3-Cl-4-CF3)]P[Ac5c][NMeV][NMeD]-Piperidide; lactam N-11),6 nM,> 500 nM
CC[C@H](C)[C@@H]1NC(=O)[C@H](CC(C)C)N(C)C(=O)C[C@@H](C(=O)N2CCCCC2)N(C)C(=O)[C@H](C2CCCCC2)N(C)C(=O)C2(CCCC2)NC(=O)[C@H]([C@@H](C)O)N(C)C(=O)[C@H](CCc2ccc(C(F)(F)F)c(Cl)c2)NC(=O)CN(C)C(=O)[C@H](CC2CCCCC2)N(C)C(=O)CN(C)C(=O)CN(C)C1=O [Compound 118] ([NMeL]I[Sar][Sar][NMeCha][Sar][hPhe(3-Cl-4-CF3)][NMeT][Ac5c][NMeChg][NMeD]-Piperidide; lactam N-11),1.9 nM,> 500 nM
CC[C@H](C)[C@@H]1NC(=O)[C@H](CC(C)C)N(C)C(=O)C[C@@H](C(=O)N2CCCCC2)N(C)C(=O)[C@H](C2CCCC2)N(C)C(=O)C2(CCCC2)NC(=O)[C@@H]2CCCN2C(=O)[C@H](CCc2ccc(C(F)(F)F)c(Cl)c2)NC(=O)CN(C)C(=O)[C@H](Cc2ccc(Cl)cc2)N(C)C(=O)[C@@H]2CCN2C(=O)[C@H](C)N(C)C1=O [Compound 120] ([NMeL]I[NMeA][Aze][NMePhe(4-Cl)][Sar][hPhe(3-Cl-4-CF3)]P[Ac5c][NMeGly(cPent)][NMeD]-Piperidide; lactam N-11),0.55 nM,≤ 20 nM
CC[C@H](C)[C@@H]1NC(=O)[C@H](CC(C)C)N(C)C(=O)C[C@@H](C)NC(=O)[C@H](C(C)C)N(C)C(=O)[C@H](Cc2ccccc2)N(C)C(=O)[C@H](CC(C)C)N(C)C(=O)[C@H](CCc2ccc(C(F)(F)F)cc2)NC(=O)CN(C)C(=O)[C@H](Cc2ccc(Cl)cc2)N(C)C(=O)CN(C)C(=O)CN(C)C1=O [Compound 124] (cyclo(I[Sar][Sar][NMePhe(4-Cl)][Sar][hPhe(4-CF3)][NMeL][NMeF][NMeV][d(β3hA)][NMeL])),140 nM,> 500 nM
"CCO[C@@H]1C[C@H]2C(=O)NC3(CCC3)C(=O)N(C)[C@@H](C3CCCC3)C(=O)N(C)[C@H](C)CC(=O)N(C)[C@@H](CC(C)C)C(=O)N[C@@H]([C@@H](C)CC)C(=O)N(C)[C@@H](C)C(=O)N3CC[C@H]3C(=O)N(CC)[C@@H](Cc3ccc(C(F)(F)F)cc3)C(=O)N(C)CC(=O)N[C@@H](CCc3cc(F)c(C(F)(F)F)c(F)c3)C(=O)N2C1 [Compound 132] (cyclo([Ac4c][NMeGly(cPent)][NMedβ3hAla][NMeL]I[NMeA][Aze][NEtPhe(4-CF3)][Sar][hPhe(3,5-F2-4-CF3)][Hyp](Et)))",0.96 nM,≤ 20 nM
